Reference: PubChem BioAssay AID1259407 (Chemical Carcinogenesis Research Information System (CCRIS), 2018)
Calls of active or inactive are those of the source. No rule for the calls is given here.

Tested on: CCRIS mutagenicity, Ames/micronucleus/aberration tests
Experiment: CCRIS mutagenicity studies
[1] = Test System: AMES SALMONELLA TYPHIMURIUM, Strain/Indicator: TA98, Metabolic Activation: NONE, Method: PREINCUBATION
[2] = Test System: AMES SALMONELLA TYPHIMURIUM, Strain/Indicator: TA100, Metabolic Activation: NONE, Method: PREINCUBATION
[3] = Test System: AMES SALMONELLA TYPHIMURIUM, Strain/Indicator: TA98, Metabolic Activation: NONE, Method: STANDARD PLATE
[4] = Test System: AMES SALMONELLA TYPHIMURIUM, Strain/Indicator: TA98, Metabolic Activation: S-9, Method: STANDARD PLATE
[5] = Test System: AMES SALMONELLA TYPHIMURIUM, Strain/Indicator: TA100, Metabolic Activation: NONE, Method: STANDARD PLATE
[6] = Test System: AMES SALMONELLA TYPHIMURIUM, Strain/Indicator: TA100, Metabolic Activation: S-9, Method: STANDARD PLATE
[7] = Test System: AMES SALMONELLA TYPHIMURIUM, Strain/Indicator: TA1535, Metabolic Activation: NONE, Method: STANDARD PLATE
[8] = Test System: AMES SALMONELLA TYPHIMURIUM, Strain/Indicator: TA1535, Metabolic Activation: S-9, Method: STANDARD PLATE
[9] = Test System: AMES SALMONELLA TYPHIMURIUM, Strain/Indicator: TA1537, Metabolic Activation: NONE, Method: STANDARD PLATE
[10] = Test System: AMES SALMONELLA TYPHIMURIUM, Strain/Indicator: TA1537, Metabolic Activation: S-9, Method: STANDARD PLATE
[11] = Test System: AMES SALMONELLA TYPHIMURIUM, Strain/Indicator: TA98, Metabolic Activation: RAT, LIVER, S-9, AROCLOR 1254, Method: STANDARD PLATE
[12] = Test System: AMES SALMONELLA TYPHIMURIUM, Strain/Indicator: TA1538, Metabolic Activation: NONE, Method: STANDARD PLATE

Which mutagenic call (End Point: In vitro chromosomal aberrations, Test System: Chinese hamster lung (CHL/IU) cells, Metabolic Activation: Rat, Liver, S9, Phenobarbital and 5,6-benzoflavone) does the source give for Nc1cc(Cl)ccc1O here?
The mutagenic call was “active; positive (structural changes and ploidy). structural changes not dose related”.

What about the mutagenic call (Test System: AMES SALMONELLA TYPHIMURIUM, Strain/Indicator: TA97, Metabolic Activation: HAMSTER, LIVER, S-9, AROCLOR 1254 (10%), Method: PREINCUBATION) of the same molecule?
Its mutagenic call is “inactive; negative”.

And the mutagenic call (Test System: AMES SALMONELLA TYPHIMURIUM, Strain/Indicator: TA97, Metabolic Activation: HAMSTER, LIVER, S-9, AROCLOR 1254 (30%), Method: PREINCUBATION)?
Its mutagenic call is “inactive; negative”.

What about the mutagenic call (Test System: AMES SALMONELLA TYPHIMURIUM, Strain/Indicator: TA97, Metabolic Activation: NONE, Method: PREINCUBATION) of the same molecule?
Its mutagenic call is “inactive; negative”.

What about the mutagenic call (Test System: AMES SALMONELLA TYPHIMURIUM, Strain/Indicator: TA97, Metabolic Activation: RAT, LIVER, S-9, AROCLOR 1254 (10%), Method: PREINCUBATION) of the same molecule?
The mutagenic call was “inactive; negative”.

And the mutagenic call (Test System: AMES SALMONELLA TYPHIMURIUM, Strain/Indicator: TA97, Metabolic Activation: RAT, LIVER, S-9, AROCLOR 1254 (30%), Method: PREINCUBATION)?
Its mutagenic call is “inactive; negative”.

What about the mutagenic call (Test System: AMES SALMONELLA TYPHIMURIUM, Strain/Indicator: TA98, Metabolic Activation: HAMSTER, LIVER, S-9, AROCLOR 1254 (10%), Method: PREINCUBATION) of the same molecule?
The mutagenic call was “inactive; negative”.

What about the mutagenic call [1] of the same molecule?
The mutagenic call was “inactive; negative”.

And the mutagenic call (Test System: AMES SALMONELLA TYPHIMURIUM, Strain/Indicator: TA98, Metabolic Activation: RAT, LIVER, S-9, AROCLOR 1254 (10%), Method: PREINCUBATION)?
The mutagenic call was “inactive; negative”.

What about the mutagenic call (Test System: AMES SALMONELLA TYPHIMURIUM, Strain/Indicator: TA98, Metabolic Activation: RAT, LIVER, S-9, PHENOBARBITAL AND BETA-NAPHTHOFLAVONE, Method: PREINCUBATION) of the same molecule?
Its mutagenic call is “inactive; negative”.

What about the mutagenic call (Test System: AMES SALMONELLA TYPHIMURIUM, Strain/Indicator: TA100, Metabolic Activation: HAMSTER, LIVER, S-9, AROCLOR 1254 (10%), Method: PREINCUBATION) of the same molecule?
Its mutagenic call is “inactive; negative”.

What about the mutagenic call [2] of the same molecule?
Its mutagenic call is “inactive; negative”.

And the mutagenic call (Test System: AMES SALMONELLA TYPHIMURIUM, Strain/Indicator: TA100, Metabolic Activation: RAT, LIVER, S-9, AROCLOR 1254 (10%), Method: PREINCUBATION)?
Its mutagenic call is “inactive; negative”.

And the mutagenic call (Test System: AMES SALMONELLA TYPHIMURIUM, Strain/Indicator: TA1535, Metabolic Activation: HAMSTER, LIVER, S-9, AROCLOR 1254 (5%), Method: PREINCUBATION)?
Its mutagenic call is “active; positive”.

And the mutagenic call (Test System: AMES SALMONELLA TYPHIMURIUM, Strain/Indicator: TA1535, Metabolic Activation: HAMSTER, LIVER, S-9, AROCLOR 1254 (10%), Method: PREINCUBATION)?
The mutagenic call was “active; positive”.

What about the mutagenic call (Test System: AMES SALMONELLA TYPHIMURIUM, Strain/Indicator: TA1535, Metabolic Activation: HAMSTER, LIVER, S-9, AROCLOR 1254 (30%), Method: PREINCUBATION) of the same molecule?
Its mutagenic call is “active; positive”.

And the mutagenic call (Test System: AMES SALMONELLA TYPHIMURIUM, Strain/Indicator: TA1535, Metabolic Activation: NONE, Method: PREINCUBATION)?
The mutagenic call was “inactive; negative”.

And the mutagenic call (Test System: AMES SALMONELLA TYPHIMURIUM, Strain/Indicator: TA1535, Metabolic Activation: RAT, LIVER, S-9, AROCLOR 1254 (5%), Method: PREINCUBATION)?
Its mutagenic call is “active; positive”.

What about the mutagenic call (Test System: AMES SALMONELLA TYPHIMURIUM, Strain/Indicator: TA1535, Metabolic Activation: RAT, LIVER, S-9, AROCLOR 1254 (10%), Method: PREINCUBATION) of the same molecule?
The mutagenic call was “active; positive”.

And the mutagenic call (Test System: AMES SALMONELLA TYPHIMURIUM, Strain/Indicator: TA1535, Metabolic Activation: RAT, LIVER, S-9, AROCLOR 1254 (30%), Method: PREINCUBATION)?
The mutagenic call was “inactive; negative”.

And the mutagenic call (Test System: AMES SALMONELLA TYPHIMURIUM, Strain/Indicator: TA1535, Metabolic Activation: RAT, LIVER, S-9, PHENOBARBITAL AND BETA-NAPHTHOFLAVONE, Method: PREINCUBATION)?
The mutagenic call was “inactive; negative”.

And the mutagenic call (Test System: AMES SALMONELLA TYPHIMURIUM, Strain/Indicator: TA1537, Metabolic Activation: NONE, Method: PREINCUBATION)?
Its mutagenic call is “inactive; negative”.

What about the mutagenic call (Test System: E. COLI, Strain/Indicator: WP2UVRA, Metabolic Activation: NONE, Method: PREINCUBATION) of the same molecule?
The mutagenic call was “inactive; negative”.

What about the mutagenic call (Test System: E. COLI, Strain/Indicator: WP2UVRA, Metabolic Activation: RAT, LIVER, S-9, PHENOBARBITAL AND BETA-NAPHTHOFLAVONE, Method: PREINCUBATION) of the same molecule?
Its mutagenic call is “inactive; negative”.

What does the source list for c1ccc2sncc2c1?
mutagenic call [3]: inactive; negative; mutagenic call [4]: inactive; negative; mutagenic call [5]: inactive; negative; mutagenic call [6]: inactive; negative; mutagenic call [7]: inactive; negative; mutagenic call [8]: inactive; negative; mutagenic call [9]: inactive; negative; mutagenic call [10]: inactive; negative

CC1=CC(=O)c2c(O)c3c(c(O)c2C1=O)C1C(O)C(C3=O)C23C(=O)c4c(O)c(C)cc(O)c4C(O)=C2C(=O)CC(O)C13 (centres undefined) was tested. Which mutagenic call (Test System: UDS RODENT HEPATOCYTES, Strain/Indicator: THY INCORP, Metabolic Activation: NONE, Method: AUTORADIOGRAPHY) did it give?
The mutagenic call was “inactive; negative”.

How did the mutagenic call [11] turn out when Cc1nc2ccc3c(nc(N)n3C)c2nc1C was run?
The mutagenic call was “active; positive”.

For CC(C)(C)CBr, which mutagenic call (Test System: AMES SALMONELLA TYPHIMURIUM, Strain/Indicator: TA97, Metabolic Activation: NONE, Method: STANDARD PLATE) is on record?
Its mutagenic call is “inactive; negative”.

And the mutagenic call [3]?
Its mutagenic call is “inactive; negative”.

And the mutagenic call (Test System: AMES SALMONELLA TYPHIMURIUM, Strain/Indicator: TA98, Metabolic Activation: RAT, LIVER, S-9, AROCLOR, Method: STANDARD PLATE)?
Its mutagenic call is “inactive; negative”.

What about the mutagenic call [5] of the same molecule?
Its mutagenic call is “inactive; negative”.

And the mutagenic call (Test System: AMES SALMONELLA TYPHIMURIUM, Strain/Indicator: TA100, Metabolic Activation: RAT, LIVER, S-9, AROCLOR, Method: STANDARD PLATE)?
Its mutagenic call is “inactive; negative”.

What about the mutagenic call [7] of the same molecule?
Its mutagenic call is “inactive; negative”.

And the mutagenic call [9]?
Its mutagenic call is “inactive; negative”.

And the mutagenic call [12]?
The mutagenic call was “inactive; negative”.

And the mutagenic call (Test System: AMES SALMONELLA TYPHIMURIUM, Strain/Indicator: TA2637, Metabolic Activation: NONE, Method: STANDARD PLATE)?
Its mutagenic call is “inactive; negative”.

For Cc1cc(O)c2c(c1O)C(=O)c1ccccc1C2=O, which mutagenic call [1] is on record?
The mutagenic call was “inactive; negative”.

What about the mutagenic call (Test System: AMES SALMONELLA TYPHIMURIUM, Strain/Indicator: TA98, Metabolic Activation: RAT, LIVER, S-9, PCB, Method: PREINCUBATION) of the same molecule?
The mutagenic call was “active; positive”.

What about the mutagenic call [2] of the same molecule?
Its mutagenic call is “inactive; negative”.

And the mutagenic call (Test System: AMES SALMONELLA TYPHIMURIUM, Strain/Indicator: TA100, Metabolic Activation: RAT, LIVER, S-9, PCB, Method: PREINCUBATION)?
The mutagenic call was “active; positive”.

With O=C1NC(=O)C(Cl)C1=C(Cl)Cl (centres undefined) as the molecule, how does the mutagenic call [5] read?
Its mutagenic call is “active; positive”.

[U] was tested. Which mutagenic call (End Point: In vitro chromosomal aberrations, Test System: Human colon tumor line LT97, Metabolic Activation: None, Method: 24 color FISH) did it give?
The mutagenic call was “active; positive (breaks at tumor-relevant chromosomes 5, 12, and 17); uranium and nitri”.

How did the mutagenic call [3] turn out when CN(C(=O)CCCCl)c1snc2ccccc12 was run?
Its mutagenic call is “inactive; negative”.

And the mutagenic call [4]?
The mutagenic call was “inactive; negative”.

What about the mutagenic call [5] of the same molecule?
The mutagenic call was “inactive; negative”.

And the mutagenic call [6]?
The mutagenic call was “inactive; negative”.

What about the mutagenic call [7] of the same molecule?
The mutagenic call was “inactive; negative”.

And the mutagenic call [8]?
Its mutagenic call is “inactive; negative”.

And the mutagenic call [9]?
Its mutagenic call is “inactive; negative”.

What about the mutagenic call [10] of the same molecule?
The mutagenic call was “inactive; negative”.

Cc1ccc(S(=O)(=O)Oc2ccc(N=Nc3ccc(-c4ccc(N=Nc5c(S(=O)(=O)O)cc6cc(S(=O)(=O)O)ccc6c5O)cc4C)c(C)c3)cc2)cc1 was tested. Which mutagenic call (Test System: AMES SALMONELLA TYPHIMURIUM, Strain/Indicator: TA98, Metabolic Activation: HAMSTER, LIVER, S-9, Method: PREINCUBATION (PRIVAL METHOD)) did it give?
Its mutagenic call is “inactive; negative”.

How did the mutagenic call [3] turn out when Cc1ccc2c(c1[N+](=O)[O-])C(=O)c1ccccc1C2=O was run?
Its mutagenic call is “active; positive”.

What about the mutagenic call [11] of the same molecule?
Its mutagenic call is “active; positive”.

And the mutagenic call (Test System: AMES SALMONELLA TYPHIMURIUM, Strain/Indicator: TA100, Metabolic Activation: RAT, LIVER, S-9, AROCLOR 1254, Method: STANDARD PLATE)?
The mutagenic call was “active; positive”.

And the mutagenic call [7]?
The mutagenic call was “inactive; negative”.

What about the mutagenic call (Test System: AMES SALMONELLA TYPHIMURIUM, Strain/Indicator: TA1537, Metabolic Activation: RAT, LIVER, S-9, AROCLOR 1254, Method: STANDARD PLATE) of the same molecule?
The mutagenic call was “active; positive”.

And the mutagenic call [12]?
The mutagenic call was “active; positive”.
